Reference: ChEMBL document CHEMBL5352470, “RS6077 induces mitotic arrest and selectively activates cell death in human cancer cell lines and in a lymphoma tumor in vivo” (Eur J Med Chem, 2023)
The source made the active and inactive calls. The calls are words filed in the database; no cut-off is given here.

What was measured:
TERT-RPE1 [1] = assay: Induction of apoptosis in human RPE-1 cells assessed as early apoptotic cells at 100 to 2500 nM measured after 72 hrs by annexin V-FITC and PI staining based flow cytometry analysis; assay type: functional, cell-based; details: dose 100-2500 nM
[2] = Toxicity in NOD/SCID mouse assessed as tolerability at 100 mg/kg, po administered for 5 days; assay type: organism-based; details: in vivo, 120 h, time 5 day
[3] = Toxicity in human T cells derived from human PBMC assessed as necrotic cells at 0.1 uM measured for 72 hrs by annexin V-FITC and PI staining based flow cytometry analysis (reference value: 0.48 to 0.56 %); details: t-cell
TERT-RPE1 [4] = assay: Induction of cell cycle arrest in human TERT-RPE1 cells assessed as accumulation of cells at G1 phase at 2500 nM incubated for 72 hrs by annexin V-FITC and PI staining based flow cytometry analysis; assay type: functional
[5] = Toxicity in human T cells derived from human PBMC assessed as viable cells at 1 uM measured for 48 hrs by annexin V-FITC and PI staining based flow cytometry analysis (reference value: 77.5 to 79.5 %); assay type: cell-based, T-cell; details: read-out: Activity
HeLa [6] = assay: Induction of cell cycle arrest in human HeLa cells assessed as accumulation of cells at G1 phase at 2500 nM incubated for 72 hrs by annexin V-FITC and PI staining based flow cytometry analysis; assay type: functional
TERT-RPE1 [7] = assay: Induction of cell cycle arrest in human TERT-RPE1 cells assessed as accumulation of cells at S phase at 2500 nM incubated for 72 hrs by annexin V-FITC and PI staining based flow cytometry analysis; assay type: functional
[8] = Metabolic stability in human liver microsome assessed as half life measured upto 60 mins by LC-MS/MS analysis; assay type: ADME; details: liver microsomes
[9] = Toxicity in NOD/SCID mouse assessed as reduction in body condition score at 100 mg/kg, po administered for 5 days; assay type: organism-based; details: in vivo, 120 h, time 5 day
HeLa [10] = assay: Induction of cell cycle arrest in human HeLa cells assessed as accumulation of cells at G2/M phase at 1000 nM incubated for 72 hrs by annexin V-FITC and PI staining based flow cytometry analysis; assay type: functional
AHH-1 [11] = assay: Induction of cell cycle arrest in human AHH-1 cells assessed as accumulation of cells at G2/M phase at 2500 nM incubated for 72 hrs by annexin V-FITC and PI staining based flow cytometry analysis; assay type: functional
AHH-1 [12] = assay: Induction of cell cycle arrest in human AHH-1 cells assessed as accumulation of cells at G1 phase at 2500 nM incubated for 72 hrs by annexin V-FITC and PI staining based flow cytometry analysis; assay type: functional
[13] = Toxicity in human T cells derived from human PBMC assessed as early apoptotic cells at 2.5 uM measured for 48 hrs by annexin V-FITC and PI staining based flow cytometry analysis (reference value: 6.75 to 8.22 %); details: t-cell
TERT-RPE1 [14] = assay: Induction of cell cycle arrest in human TERT-RPE1 cells assessed as accumulation of cells at G2/M phase at 100 nM incubated for 72 hrs by annexin V-FITC and PI staining based flow cytometry analysis; assay type: functional
[15] = Toxicity in human T cells derived from human PBMC assessed as late apoptotic cells at 1 uM measured for 48 hrs by annexin V-FITC and PI staining based flow cytometry analysis (reference value: 13.5 to […] %); details: t-cell
[16] = Toxicity in human T cells derived from human PBMC assessed as late apoptotic cells at 2.5 uM measured for 48 hrs by annexin V-FITC and PI staining based flow cytometry analysis (reference value: 13.5 to […] %); details: t-cell
[17] = Toxicity in human T cells derived from human PBMC assessed as viable cells at 2.5 uM measured for 48 hrs by annexin V-FITC and PI staining based flow cytometry analysis (reference value: 77.5 to 79.5 %); assay type: cell-based, T-cell; details: read-out: Activity
AHH-1 [18] = assay: Induction of cell cycle arrest in human AHH-1 cells assessed as accumulation of cells at G2/M phase at 1000 nM incubated for 72 hrs by annexin V-FITC and PI staining based flow cytometry analysis; assay type: functional
[19] = Toxicity in human T cells derived from human PBMC assessed as viable cells at 0.1 uM measured for 48 hrs by annexin V-FITC and PI staining based flow cytometry analysis (reference value: 77.5 to 79.5 %); assay type: cell-based, T-cell; details: read-out: Activity
Z-138 = assay: Antiproliferative activity against human Z138 cells assessed as inhibition of cell growth measured for 72 hrs by MTT assay; assay type: functional, cell-based; details: Z-138, 72 h
AHH-1 [20] = assay: Induction of cell cycle arrest in human AHH-1 cells assessed as accumulation of cells at G1 phase at 100 nM incubated for 72 hrs by annexin V-FITC and PI staining based flow cytometry analysis; assay type: functional
[21] = Toxicity in human T cells derived from human PBMC assessed as early apoptotic cells at 0.1 uM measured for 48 hrs by annexin V-FITC and PI staining based flow cytometry analysis (reference value: 6.75 to 8.22 %); details: t-cell
[22] = Toxicity in human T cells derived from human PBMC assessed as necrotic cells at 2.5 uM measured for 48 hrs by annexin V-FITC and PI staining based flow cytometry analysis (reference value: 0.31 to 0.48 %); details: t-cell
AHH-1 [23] = assay: Antiproliferative activity against human AHH-1 cells assessed as inhibition of cell growth measured for 48 hrs by MTT assay; assay type: functional, cell-based; details: AHH-1, 48 h
TMD8 [24] = assay: Antitumor activity against human TMD8 cells xenografted in NOD/SCID mouse assessed as reduction in tumor volume at 100 mg/kg, po administered for 5 days and measured on day 6; assay type: functional; details: time 6 day
[25] = Toxicity in human T cells derived from human PBMC assessed as viable cells at 2.5 uM measured for 72 hrs by annexin V-FITC and PI staining based flow cytometry analysis (reference value: 66.5 to 77.5 %); assay type: cell-based, T-cell; details: read-out: Activity
TMD8 [26] = assay: Antitumor activity against human TMD8 cells xenografted in NOD/SCID mouse assessed as reduction in tumor volume at 100 mg/kg, po administered for 5 days and measured on day 13; assay type: functional; details: time 13 day
[27] = Metabolic stability in mouse liver microsome assessed as half life measured upto 60 mins by LC-MS/MS analysis; assay type: ADME; details: liver microsomes
HeLa [28] = assay: Induction of cell cycle arrest in human HeLa cells assessed as accumulation of cells at G1 phase at 100 nM incubated for 72 hrs by annexin V-FITC and PI staining based flow cytometry analysis; assay type: functional
Farage = assay: Antiproliferative activity against human Farage cells assessed as inhibition of cell growth measured for 72 hrs by MTT assay; assay type: functional, cell-based
[29] = Selectivity ratio of IC50 for human TERT-RPE1 cells to IC50 for human AHH-1 cells; assay type: functional
[30] = Toxicity in human T cells derived from human PBMC assessed as late apoptotic cells at 0.1 uM measured for 72 hrs by annexin V-FITC and PI staining based flow cytometry analysis (reference value: 11.5 to 17.6%); details: t-cell
KARPAS-422 = assay: Antiproliferative activity against human KARPAS-422 cells assessed as inhibition of cell growth measured for 72 hrs by MTT assay; assay type: functional, cell-based; details: KARPAS-422, 72 h
AHH-1 [31] = assay: Induction of apoptosis in human AHH-1 cells at 100 nM measured after 72 hrs by annexin V-FITC and PI staining based flow cytometry analysis; assay type: functional

For COc1cc(C(=O)c2ccn(-c3ncnc4[nH]ccc34)c2)cc(OC)c1OC, the Activity (TERT-RPE1 [1]) was “Active”, the Activity [2] was “Non-Toxic” and the Activity [3] was 0.48%. The Activity (TERT-RPE1 [4]) was 17.6%, the viability at 48 h, 1 µM [5] was 74.9% and the Activity (HeLa [6]) was 17%. For the same compound, the Activity (TERT-RPE1 [7]) was 7.3%, the half-life [8] was 50.5 min and the Activity [9] was “Non-Toxic”. For the same compound, the Activity (HeLa [10]) was 33.8%, the Activity (AHH-1 [11]) was 69.7% and the Activity (AHH-1 [12]) was 9.8%. It also gave an Activity [13] of 7.06%, an Activity (TERT-RPE1 [14]) of 83% and an Activity [15] of 12.7%. The Activity [16] was 12.2%, the viability at 48 h, 2.5 µM [17] was 72.7% and the Activity (AHH-1 [18]) was 70.8%. It also gave a viability at 48 h, 0.1 µM [19] of 75.4%, an IC50 (Z-138) of 23.6 nM and an Activity (AHH-1 [20]) of 37.1%. The Activity [21] was 5.88%, the Activity [22] was 0.41% and the IC50 (AHH-1 [23]) was 16.3 nM. The Activity (TMD8 [24]) was 407 mm3, the viability at 72 h, 2.5 µM [25] was 64.3% and the Activity (TMD8 [26]) was 354 mm3. The half-life [27] was 14.7 min, the Activity (HeLa [28]) was 28.5% and the IC50 (Farage) was 17.6 nM. The “Ratio IC50” value [29] was 6.2, the Activity [30] was 11.8% and the IC50 (KARPAS-422) was 36.3 nM. It also gave an Activity (AHH-1 [31]) of 60%.
